Source: patent publication US20250346599A1, “TRICYCLIC PHTHALAZINONE PARP INHIBITORS AND METHODS OF USE” (Valo Health, Inc., priority 2022, published 2025)

Key:
tumors = settings: literature statement; cited from earlier work
PARP1 enzyme = PARP1 enzyme (Homo sapiens (Human), UniProt P09874); assay: PARP Mass Spectroscopy Assay (PARP1 enzymatic assay, nicotinamide detection); assay type: biochemical; settings: 5 nM PARP1, 5 uM β-NAD, 60 min at RT, NAM by mass spectrometry
In short: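 Compounds were pre-incubated 30 min at RT with 5 nM PARP1 and core histones, then reacted 60 min at RT with 5 uM β-NAD and activated DNA in Tris pH 8.0 buffer with MgCl2, NaCl, Triton X-100 and DTT. The reaction was quenched with 3ABA, and nicotinamide was measured by mass spectrometry. IC50 came from a four-parameter fit of 10-point curves.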

[1] = in vivo unbound brain to plasma ratio (Kpuu) at steady state; settings: rat, brain and plasma (unbound), continuous intravenous infusion over 24 hours, Sprague Dawley rats, free drug in brain vs plasma
Procedure: Compounds of the present technology are predicted to show BBB passage according to internal proprietary predictive models. These predictive models were further verified by in vivo experiments. In particular, in vivo unbound brain to plasma ratio (Kpuu) was measured at steady state by comparison of free drug concentrations (protein binding corrected) in brain and plasma after continuous intravenous infusion in Sprague Dawley rats over 24 hours, where a Kpuu of >0.3 represents good brain exposure of the compound.

[2] = biological target: human MDR1 (P-glycoprotein; P-gp) (Homo sapiens (Human), UniProt P08183); assay: bi-directional MDCK-MDR1 permeability assay; assay type: in vitro ADME; settings: MDCK-MDR1
Description: The bi-directional assay containing a Mandin Darby canine kidney (MDCK) cell line transfected with human MDR1 gene (P-glycoprotein; P-gp) designed to overexpress the MDR1 efflux transporter, a major efflux transporter at the blood brain barrier (BBB), uses an established method that measures the rate of flux of a compound across polarized cell monolayers. As well appreciated in the art, the data generated from the MDCK-MDR1 permeability assay may be used to predict in vivo absorption of drugs. The bi-directional MDCK-MDR1 permeability assay can identify and quantify levels of active efflux. Screening compounds in both the apical to basolateral direction (A→B) and basolateral to apical direction (B→A) across the cell monolayer provides a ratio of B→A/A→B (efflux ratio; “ER”). Unlike the Caco-2 assay, the MDCK-MDR1 assay is not subject to potential efflux interference by breast cancer resistance protein (BCRP). […] The data may further be used to predict blood brain barrier (BBB) permeability via calculation from the data of log(permeability-surface area product) (“log PS”), well-understood to be predictive of the in vivo log([brain concentration]/[plasma concentration]).

human MDR1 (P-glycoprotein; P-gp), sequence (P08183 whole entry): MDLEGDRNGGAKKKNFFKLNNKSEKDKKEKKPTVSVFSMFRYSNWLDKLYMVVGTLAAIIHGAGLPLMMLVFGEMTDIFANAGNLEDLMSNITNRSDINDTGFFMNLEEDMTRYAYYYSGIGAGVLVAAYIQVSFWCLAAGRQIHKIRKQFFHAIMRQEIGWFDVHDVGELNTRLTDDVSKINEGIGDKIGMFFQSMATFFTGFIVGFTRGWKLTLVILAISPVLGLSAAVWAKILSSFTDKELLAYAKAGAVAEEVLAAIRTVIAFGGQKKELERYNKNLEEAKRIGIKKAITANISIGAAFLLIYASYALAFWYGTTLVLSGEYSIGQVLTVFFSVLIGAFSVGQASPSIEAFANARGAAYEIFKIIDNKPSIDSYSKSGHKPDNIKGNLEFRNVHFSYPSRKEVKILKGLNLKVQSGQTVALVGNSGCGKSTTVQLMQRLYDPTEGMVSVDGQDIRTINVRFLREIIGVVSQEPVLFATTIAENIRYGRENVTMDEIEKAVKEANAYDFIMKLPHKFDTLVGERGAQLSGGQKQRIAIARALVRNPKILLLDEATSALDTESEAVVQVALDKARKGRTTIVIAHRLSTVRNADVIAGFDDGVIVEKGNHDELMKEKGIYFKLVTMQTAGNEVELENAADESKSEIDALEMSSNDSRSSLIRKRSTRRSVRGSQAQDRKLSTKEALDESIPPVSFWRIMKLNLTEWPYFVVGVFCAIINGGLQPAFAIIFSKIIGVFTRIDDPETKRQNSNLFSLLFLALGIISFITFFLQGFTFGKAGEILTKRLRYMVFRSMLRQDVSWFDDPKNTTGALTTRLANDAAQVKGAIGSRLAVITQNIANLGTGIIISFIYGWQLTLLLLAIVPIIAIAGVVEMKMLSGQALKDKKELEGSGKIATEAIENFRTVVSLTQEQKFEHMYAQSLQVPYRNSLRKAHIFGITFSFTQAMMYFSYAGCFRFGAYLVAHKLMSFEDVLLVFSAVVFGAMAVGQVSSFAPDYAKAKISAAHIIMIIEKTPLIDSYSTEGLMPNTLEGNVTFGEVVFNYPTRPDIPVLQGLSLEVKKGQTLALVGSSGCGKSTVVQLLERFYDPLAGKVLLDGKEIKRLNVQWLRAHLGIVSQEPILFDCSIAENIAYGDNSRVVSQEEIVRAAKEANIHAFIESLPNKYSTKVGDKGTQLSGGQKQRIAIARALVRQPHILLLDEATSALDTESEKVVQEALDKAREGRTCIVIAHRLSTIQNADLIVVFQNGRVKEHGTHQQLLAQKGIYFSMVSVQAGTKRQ
PARP1 enzyme, sequence (P09874 whole entry): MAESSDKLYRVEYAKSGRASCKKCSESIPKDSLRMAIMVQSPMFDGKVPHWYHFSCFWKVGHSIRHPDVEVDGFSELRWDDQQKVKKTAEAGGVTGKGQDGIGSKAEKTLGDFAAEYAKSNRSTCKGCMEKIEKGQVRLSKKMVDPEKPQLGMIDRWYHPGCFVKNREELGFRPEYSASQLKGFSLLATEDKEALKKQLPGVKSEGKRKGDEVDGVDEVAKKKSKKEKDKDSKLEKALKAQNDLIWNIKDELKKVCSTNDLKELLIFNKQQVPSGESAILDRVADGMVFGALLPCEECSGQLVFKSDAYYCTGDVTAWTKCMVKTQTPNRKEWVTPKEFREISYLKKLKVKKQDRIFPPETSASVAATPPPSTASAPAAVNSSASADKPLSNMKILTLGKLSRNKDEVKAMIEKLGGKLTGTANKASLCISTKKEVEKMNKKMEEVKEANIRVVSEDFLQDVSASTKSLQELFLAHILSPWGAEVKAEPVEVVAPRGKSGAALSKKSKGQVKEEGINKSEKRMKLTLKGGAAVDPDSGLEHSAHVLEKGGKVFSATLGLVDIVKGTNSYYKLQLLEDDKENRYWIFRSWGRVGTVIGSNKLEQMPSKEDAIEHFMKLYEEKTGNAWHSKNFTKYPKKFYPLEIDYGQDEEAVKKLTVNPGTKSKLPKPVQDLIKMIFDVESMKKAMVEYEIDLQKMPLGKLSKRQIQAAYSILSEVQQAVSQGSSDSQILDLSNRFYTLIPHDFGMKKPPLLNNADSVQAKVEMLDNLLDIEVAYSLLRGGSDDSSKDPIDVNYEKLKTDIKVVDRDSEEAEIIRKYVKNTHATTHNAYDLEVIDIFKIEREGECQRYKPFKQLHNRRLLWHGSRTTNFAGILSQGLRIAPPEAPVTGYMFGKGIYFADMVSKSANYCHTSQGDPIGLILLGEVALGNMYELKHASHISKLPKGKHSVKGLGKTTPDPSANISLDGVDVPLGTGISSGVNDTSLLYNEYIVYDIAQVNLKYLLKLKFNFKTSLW

Row | IC50 (PARP1 enzyme) [nM] | Kp uu at 24 h [1] | Papp A→B ([2]; dog, apical to basolateral direction) [×10⁻⁶ cm/s] | efflux ratio ([2]; human, efflux ratio B→A/A→B, read-out: MDCK-MDR1 ER) | Compound | efficacy in tumors (tumors)
1 |  |  |  |  | C[C@]1(c2nc3c(C(N)=O)cccc3[nH]2)CCCN1 [veliparib] | not efficacious in most tumors
2 | 41 | 0.921 | 18.6 | 0.55 | O=c1[nH]nc2c3c(cc(F)cc13)NC[C@@H]2c1ccc(F)cc1F [Compound 0114B, (S)-9-(2,4-difluorophenyl)-5-fluoro-2,7,8,9-tetrahydro-3H-pyrido[4,3,2-de]phthalazin-3-one] | 
